From US7709497B2, “Pyrazolo[3,4-b]pyridine compound, and its use as a PDE4 inhibitor” (Glaxo Group Limited, priority 2004, dated 2010)

Assays:
PDE5 (human recombinant) = PDE5 (human recombinant) (Homo sapiens, UniProt O76074); assay: PDE5 inhibition (SPA or modified FP assay); type: biochemical; conditions: n = 1; accuracy ±about 0.5 log unit; read-out: PDE5 pIC50 (converted)
Description: Human recombinant PDE5 is disclosed in K. Loughney et al., “Isolation and characterisation of cDNAs encoding PDE5A, a human cGMP-binding, cGMP-specific 3′,5′-cyclic nucleotide phosphodiesterase”, Gene, 1998, 216, 139-147.
The ability of compounds to inhibit catalytic activity at PDE4B or 4D (human recombinant), PDE3 (from bovine aorta), PDE5 (human recombinant) or PDE6 (from bovine retina) can optionally be determined by Scintillation Proximity Assay (SPA) in a 96-well format.
Test compounds (as a solution in DMSO, preferably about 2 microliters (ul) volume of DMSO solution) are preincubated at ambient temperature (room temperature, e.g. 19-23° C.) in Wallac Isoplates (code 1450-514) with PDE enzyme in 50 mM Tris-HCl buffer pH 7.5, 8.3 mM MgCl2, 1.7 mM EGTA, 0.05% (w/v) bovine serum albumin for 10-30 minutes (usually 30 minutes). The enzyme concentration is adjusted so that no more than 20% hydrolysis of the substrate defined below occurs in control wells without compound, during the incubation. […] Bound radioactive product is measured using a WALLAC TRILUX 1450 Microbeta scintillation counter. […] Curves are analysed using ActivityBase and XLfit (ID Business Solutions Limited, 2 Ocean Court, Surrey Research Park, Guildford, Surrey GU2 7QB, United Kingdom) Results are expressed as pIC50 values. […]

[1] = test system: Dinitrofluorobenzene (DNFB)-induced delayed type hypersensitivity (DTH) response in pigs; assay: Pig model of atopic dermatitis: DNFB-induced DTH response, skin topical administration; type: in vivo
Description: The pig DTH (delayed type hypersensitivity) model of contact hypersensitivity utilizes the Th2-mediated inflammatory response in pig skin to mimic the pathology of atopic dermatitis in humans. The model measures the potential anti-inflammatory effect of compounds, topically-applied to the skin, on the acute DTH (delayed type hypersensitivity) response in castrated male Yorkshire pigs.
In general in the assay, pigs (domestic Yorkshire pigs, 15-18 kg at time of sensitization, castrated males) are first sensitized by topical application of ca. 10% (w/v) dinitrofluorobenzene (DNFB) dissolved in DMSO:acetone:olive oil (ca. 1:5:3) (ca. 40 mg DNFB, 400 microlitre solution total) to the ears (outer) and groin (inner). The pigs are then challenged 12 days later with ca. 0.6% (w/v) DNFB applied to randomized sites on the shaved back of the pigs (ca. 90 micrograms/site; sites are identified and numbered by grid made with marking pen).
On the day of challenge, the treatments are performed at about 2 hours prior to and about 6 hours after challenge (for DMSO/acetone solutions/suspensions, to maximize exposure to drug), or at about 30 minutes after and about 6 hours after challenge (for topical ointments or creams, representing a more clinically relevant treatment protocol).
One day (about 24 hrs) after challenge, and optionally again at ca. 48 hrs post challenge, test sites are visually evaluated for intensity and extent of erythema by measuring the diameter of the reaction at its widest point and assigning scores of 0 to 4 for each of erythema intensity and erythema extent. Induration (a measure of swelling) is also scored 0 to 4. Scores for erythema intensity, erythema extent and induration are assigned according to the following criteria: Intensity of Erythema: 0=normal, 1=minimal, barely visible, 2=mild, 3=moderate, 4=severe. Extent of Erythema (not raised): 0=no edema, 1=macules of pin head size, 2=lentil sized macules, 3=confluent macules, 4=diffuse over entire site. Induration (palpable): 0=normal, 1=nodules of pin head size, 2=doughy lentil sized nodules, 3=confluent firm nodules, 4=diffuse hard lesion. The summed visual score at ca. 24 hours includes the individual scores for erythema intensity, erythema extent, and induration; so the maximal summed score for each site would be 12. High summed scores can generally indicate a high inflammatory response. Visual scores are subject to some inaccuracy/error.
Differences in the summed score between adjacent control (placebo) and treatment sites on the grids are calculated. This difference value is then used to determine the percent inhibition compared to the summed score for the control (placebo) sites. The more negative the difference value, the greater the calculated inhibition. Percent inhibition of (percent inhibition compared to) the mean summed score can be calculated.
About 24 hours after challenge, treatment sites can optionally also be visually evaluated for lesion area.
The anti-inflammatory effect of the compound of formula (I) (“free base” form), applied topically to the skin, on the acute DTH response in castrated male Yorkshire pigs is compared to that of another PDE4 inhibitor cipamfylline (BRL-61063) and the topical immunomodulator pimecrolimus.
In the above assay, the compound of formula (I) is topically administered: either (A) at ca. 2.5% (w/v) concentration in a solution of ca. 10% DMSO/90% acetone (ca. 50 microliters or ca. 1.5 mg/site) at about 2 hours prior to and about 6 hours after the DNFB challenge; or (B) at ca. 0.5% (w/w) concentration in an ointment containing propylene glycol (PG)*(ca. 25 mg of formulation/site) at about 30 minutes after and about 6 hours after the DNFB challenge. […]

## CCn1ncc2c(NC3CCN(C(N)=O)CC3)c(C(=O)NCc3ccc(C)c(C)c3)cnc21 [compound of formula (I), 4-{[1-(aminocarbonyl)-4-piperidinyl]amino}-N-[(3,4-dimethylphenyl)methyl]-1-ethyl-1H-pyrazolo[3,4-b]pyridine-5-carboxamide]
PDE5 (human recombinant)
  IC50: 490 nM
[1]; ca. 0.5% (w/w) in PG ointment, vs placebo PG ointment, ca. 24 h after challenge, p<0.05 by ANOVA
  inhibition of mean summed score (erythema intensity, erythema extent, induration): 13-14%
[1]; ca. 2.5% (w/v) in DMSO/acetone solution, vs vehicle alone, ca. 24 h after challenge
  reduction in mean summed score: about 21%
[1]; skin administration in DMSO/acetone or PG ointment, subject to some inaccuracy/error
  lesion area: decrease the lesion area
